Results taken from patent US8071548B2, “Method of reducing injury to mammalian cells” (Nono, Inc., priority 2002, dated 2011).

Assays:
[1] = tested on: cortical neuronal cultures; test: Sublethal stretch injury with or without NMDA, cell death in cortical cultures; type: cell-based
Method: […]. In brief, cerebral cortices from 10 to 12 embryos were incubated for 10 min in 0.05% trypsin-EDTA, dissociated by trituration, and plated on flexible membranes coated with poly-L-ornithine in 6 well plates (Flexcell International Corporation, Hillsborough, N.C.) at a density of 3.25×10^6 cells per well. Plating medium consisted of DMEM supplemented with 10% heat-inactivated horse serum (Gibco) and (in mM) 2 glutamine, 25 glucose, and 26 bicarbonate. The cultures were maintained at 37° C. in a humidified 5% CO2 atmosphere. After 3 days in vitro, growth of non-neuronal cells was halted by a 48 h exposure to 10 μM FDU-solution (5 μM uridine, 5 μM (+)-5-fluor-2′-deoxyuridine). This produces cultures in which >85% of the cells are neurons, based on immunohistochemical staining for glial fibrillary associated protein (exclusive to astrocytes), and for the NMDAR1 subunit (not shown). The cultures were used for experiments after 12-14 days in vitro.
The cultures, grown on silastic membranes as above, were placed in the Flexercell® FX-3000™ Strain Unit (Flexcell Int., Inc.), a computer-driven instrument that uses a vacuum pulse to deform the culture substrate. In all experiments, the cortical cultures were stretched to 130% of their original length for 1 s, inducing a sublethal injury as recently characterized by us (Arundine et al., 2003). The stretched neurons maintained cell membrane integrity, viability, and electrophysiological function.
Cell death was determined by serial quantitative measurements of propidium iodide (PI) fluorescence using a multiwell plate fluorescence scanner (Cytofluor II, PerSeptive Biosytems, Framingham, Mass., USA) as described previously (Sattler et al., 1997; Sattler et al., 1998). In brief, the culture medium in each tissue culture well was replaced with control solution containing 50 μg/ml PI, and a baseline fluorescence reading was taken. Sequential readings were then taken at appropriate intervals over the 20 h observation period. The fraction of dead cells in each culture at a given time was calculated as: Fraction dead=(Ft−Fo)/FNMDA Where Ft=PI fluorescence at time t, F0=initial PI fluorescence at time zero and FNMDA=background subtracted PI fluorescence of identical cultures from the same dissection and plating, 20-24 h after a 60 min exposure to 1 mM NMDA at 37° C. Based on manual observations at the time of validation of this technique, this NMDA exposure routinely produced near complete neuronal death in each culture but had no effect on surrounding glia (also see (Bruno et al., 1994; David et al., 1996; Sattler et al., 1997)). Adding Triton X-100 (0.1%) to cultures treated in this manner produced an additional 10-15% increase in PI fluorescence due to permeabilization of non-neuronal cell membranes, consistent with a 10-15% glial component in the cultures.
All experiments were performed at 37° C. Unless otherwise indicated, all solutions contained nimodipine (2 μM) and CNQX (10 μM) to restrict the actions of applied NMDA to NMDARs by preventing the secondary activation of other pathways (Sattler et al., 1998). In general, the cultures were washed ×2 with control solution and immediately stretched to 130% of their original length for 1 s. After the stretch, they were washed ×1 with control solution alone or challenged with an additional treatment (e.g., NMDA) and placed at 37° C. for 1 h. They were then washed ×1 with control solution and then with control solution containing 50 μg/ml PI to obtain a baseline reading. In pilot studies, baseline readings obtained at this stage were similar to those obtained by staining the cells with PI prior to stretch. As the stretch causes splashing of the bath solution, staining with PI after stretch reduced biohazard potential and artifacts associated with PI outside the culture well. Unstretched controls were manipulated identically to stretched cultures.

[2] = Physiological variables in pre-treatment MCAO study; type: in vivo, Sprague-Dawley rats
Method: Next, I examined whether pretreatment with Tat-peptides would reduce stroke damage. Experiments were carried out in adult male Sprague-Dawley rats subjected to transient middle cerebral artery occlusion (MCAO) for 90 minutes by the intraluminal suture method (36,37). Animals were fasted overnight and injected with atropine sulfate (0.5 mg/kg IP). After 10 minutes anesthesia was induced with 3.5% halothane in a mixture of nitrous oxide and oxygen (Vol. 2:1) and maintained with 0.8% halothane. Rats were orally intubated, mechanically ventilated, and paralyzed with pancuronium bromide (0.6 mg/kg IV). Body temperature was maintained at 36.5-37.5° C. with a heating lamp. Polyethylene catheters in the femoral artery and vein were used to continuously record blood pressure and to sample blood for gas and pH measurements. […] This produces an extensive infarction encompassing the cerebral cortex and basal ganglia. […] Physiological parameters (body temperature, blood pressure, blood gases) were monitored and maintained throughout the experiment (Table 1). All experimental manipulations and analyses of data were performed by individuals blinded to the treatment groups. The extent of cerebral infarction was measured 24 h after MCAO onset (FIG. 7C inset). The postural reflex test (38), and the forelimb placing test (39) were used to grade neurological function on a scale of 0 to 12 (normal=0; worst=12) during MCAO (at 50 minutes) and 24 h thereafter.

Tat-KLSSIESDV [Tat-NR2B9c]
toxic effects in control or stretched cultures ([1]; 50 nM): no toxic effects
heightened vulnerability of stretched cultures to NMDA toxicity, pre-treatment ([1]; 50 nM 30 min prior to stretch, NMDA 30 μM 1 h, cell death at 20 h): completely abolished
enhanced cell mortality in stretched neurons by NMDA challenge, post-treatment ([1]; 50 nM applied after terminating the 1 h NMDA challenge): reduced the enhanced cell mortality
Body Temperature ([2]; After MCAo (15 min)): 36.8 ± 0.12 °C
Body Temperature ([2]; After MCAo (24 hr)): 36.5 ± 0.14 °C
Body weight ([2]; After MCAo (24 hr)): 250 ± 5 g
Body Temperature ([2]; Before MCAo(15 min)): 36.7 ± 0.20 °C
MABP ([2]; Before MCAo(15 min)): 90 ± 6 mmHg
Blood gases PCO2 ([2]; Before MCAo(30 min)): 38.1 ± 1.4 mmHg
Blood gases PH ([2]; Before MCAo(30 min)): 7.44 ± 0.02
Blood gases PO2 ([2]; Before MCAo(30 min)): 123 ± 8 mmHg
Body Temperature ([2]; Before MCAo(30 min)): 36.7 ± 0.19 °C
MABP ([2]; Before MCAo(30 min)): 76 ± 5 mmHg
Body Temperature ([2]; Before MCAo(45 min)): 36.6 ± 0.21 °C
MABP ([2]; Before MCAo(45 min)): 120 ± 9 mmHg
Body weight ([2]; Before anesthesia): 271 ± 5 g
Blood gases PCO2 ([2]; During MCAo (5 min)): 41.0 ± 1.3 mmHg
Blood gases PH ([2]; During MCAo (5 min)): 7.44 ± 0.02
Blood gases PO2 ([2]; During MCAo (5 min)): 112 ± 6 mmHg
Body Temperature ([2]; During MCAo (5 min)): 36.7 ± 0.16 °C
MABP ([2]; During MCAo (5 min)): 112 ± 9 mmHg
Body Temperature ([2]; During MCAo (15 min)): 36.8 ± 0.23 °C
MABP ([2]; During MCAo (15 min)): 98 ± 6 mmHg
